Laboratory results taken from US20150329387A1, “SYSTEMS AND METHODS FOR GENERATING HALOAMINES AND APPLICATION THEREOF IN OIL AND GAS OPERATIONS” (BUCKMAN LABORATORIES INTERNATIONAL, INC., priority 2014, published 2015).

Legend:
Format in all cases: cell-based
[1] = test system: anaerobes; assay: Kill study: ATP test of anaerobically captured oil field influent water (LuminUltra QUO-M kit); design: ATP readings: unit not given here
Method: In an oil and gas field in the western USA, MCA was tested in comparison with methylene bis(thiocyanate), (MTC) in a weekly batch treatment and is fed for 2-3 hours at 200 ppm (as product).
A solution of MCA Working Solution was prepared using Busan 1474 and Bulab 6004 (high alkalinity bleach). The reaction of these two components diluted in water at the proper equimolar ratios and proper pH produces a stable high concentration of biocide. A known concentration of MCA was added to a specific volume of influent water which had to be captured under anaerobic conditions and kept in an incubation chamber when not being used because the primary organisms of interest (anaerobes) are very susceptible to both oxygen and temperature changes. Therefore, as soon as the samples were collected, the head space of the bottles were purged with Nitrogen and then sealed with a rubber stopper (which will permit the insertion of a hypodermic needle) and then crimped into place with an aluminium seal.
Owing to the fact that there is significant oil in the water, the organisms are coated with a fine layer of organic material, thus necessitating the usage of an ATP test kit which washes away the layer of oil prior to ATP testing. The kit employed for this testing is manufactured by LuminUltra and is identified as the Quench Gone Organic-Modified (QUO-M) test kit.
Furthermore, in order to ensure that adequate MCA was present to penetrate this oil layer (and have an apples to apples comparison in performance), the MCA was dosed at the same level as the MTC at a concentration of 200 ppm.
The MCA was tested at intervals between this period (30, 60, 180, and 240 minutes).
Bottles were collected and the initial concentration of ATP for each bottle was measured and then dosed with 200 ppm of MCA and MTC respectively and one bottle was not dosed to serve as a growth control.

[2] = Previous testing of kill time and cell penetration
Method: Previous testing had shown that the MCA was killing in 20 minutes what it took other biocides (i.e. MTC and Glutaraldehyde) to accomplish in four hours.

[3] = test system: total biological organism concentration; assay: ATP test of biocides in produced water from oil field water/oil/gas separator (LuminUltra QBG kit)
Excerpt: A one-liter sample of water was obtained from the mechanical water/oil/gas separator from a producing oil field in the western USA. The one liter sample was separated into four aliquots, one control and three test samples.
Adenosine triphosphate (ATP) is the energy source for all living organisms. Measurement of the ATP concentration in a water sample gives a good indication of the concentration of total biological organism concentration. A number of different companies including 3M and LuminUltra manufacture test kits. For this testing, the LuminUltra QBG test kit was employed.
Each of the non-control samples were dosed with one of three different biocides: MTC-10 (a 10% solution of methylenebis(thiocyanate) at 22 ppm active concentration; Diald 25 (a 25% solution of Glutaraldehyde) at 50 ppm active; and monochloramine (MCA) at a concentration of 7.5 ppm. After 30 and 60 minutes of exposure, ATP levels were measured and recorded.

[4] = 0 min, initial reading of the bottle before dosing at 200 ppm
[5] = 180 min after dosing at 200 ppm
[6] = 240 min after dosing at 200 ppm

| SMILES | ATP readings [1, 4] | Percent reduction in ATP level (percent kill) ([1]; 30 min, 200 ppm) [%] | ATP readings ([1]; 30 min after dosing at 200 ppm) | Percent reduction in ATP level (percent kill) ([1]; 60 min, 200 ppm) [%] | ATP readings ([1]; 60 min after dosing at 200 ppm) | Percent reduction in ATP level (percent kill) ([1]; 180 min, 200 ppm) [%] | ATP readings [1, 5] | Percent reduction in ATP level (percent kill) ([1]; 240 min, 200 ppm) [%] | ATP readings [1, 6] | Cell penetration ([2]; compared with MTC) | Time to accomplish kill ([2]; previous testing) [min] | Effectiveness relative to MTC-10 on an activity percentage basis ([3]; 30 minutes and 60 minutes of exposure, Figure-3) | Performance better than Diald-25 on an activity percentage basis ([3]; 60 minutes of exposure, Figure-3) | Performance on a product percentage basis compared with Diald-25 ([3]; MCA 7.5 ppm vs Diald 25 50 ppm active, ATP after 30 and 60 minutes, Figure-2) | Performance on a product percentage basis compared with MTC-10 ([3]; MCA 7.5 ppm vs MTC-10 22 ppm active, ATP after 30 and 60 minutes, Figure-2) | Performance relative to Diald-25 on an activity percentage basis ([3]; first 30 minutes, Figure-3) [×] | Overall performance in kill study compared with MCA ([1]; 200 ppm, FIG. 4 / Table 1) |
| --- | --- | --- | --- | --- | --- | --- | --- | --- | --- | --- | --- | --- | --- | --- | --- | --- | --- |
| NCl [MCA, monochloramine] | 321.4 | 92 | 26.05 | 94 | 19.2 | 95 | 17.4 | 96 | 11.9 | better than for MTC | 20 | greater than 3 × | more than 20% | better than Diald-25 | as well as MTC-10 | ~2 |  |
| N#CSCSC#N [MTC, methylene bis(thiocyanate), reference compound] | 217.3 |  |  |  |  |  | 16.9 | 0.97 | 6.12 |  |  |  |  |  |  |  | performed slightly better |
